Laboratory results reported in PMC11342128, “Gold(I) and gold(III) carbene complexes from the marine betaine norzooanemonin: inhibition of thioredoxin reductase, antiproliferative and antimicrobial activity” (RSC Medicinal Chemistry, 2024).

What was measured:
[1] = test system: MDA-MB-231 breast cancer cells; assay: Antiproliferative activity, crystal violet assay; assay type: cell-based; settings: 96 h exposure, SD in parentheses, n = 3
Method: (§1) The antiproliferative potential of the gold–NHC complexes was determined in A549 lung carcinoma cells, MDA-MB-231 breast cancer cells, MCF-7 breast adenocarcinoma cells, and HT-29 colon carcinoma cells (Table 1). Vero E6 African green monkey kidney cells served as a reference cell line to check for possible tumour selectivity. Auranofin (AF) was used as an established reference drug.[15,17] […]
(§2) S2.2. Cytotoxicity and Anticancer Studies
(§3) Cell culture and cytotoxicity
(§4) Cell lines were sourced from DSMZ (German Collection of Microorganisms and Cell Cultures GmbH) and maintained through standard procedures in Dulbecco's Modified Eagle Medium (DMEM) supplemented with 10% fetal calf serum and 50 mg/L gentamycin. Antiproliferative effects were assessed using a well-established assay protocol. In brief, 100 μL volumes of A549 cells (13,243 cells per mL), HT-29 cells (14,657 cells per mL), MDA-MB-231 cells (6,613 cells per mL), or MCF-7 cells (6,917 cells per mL) were transferred into the wells of 96-well plates and incubated at 37°C/5% CO2 for 72 […]
(§5) Freshly prepared stock solutions of the compounds in DMSO were diluted with the respective cell culture medium to achieve graded concentrations (final concentration of DMSO: 0.1% v/v). After 72 hours (A549, HT-29) or 96 hours (MCF-7, MDA-MB-231) of exposure, the cell biomass was assessed through crystal violet staining, and the IC50 value was determined as the concentration causing 50% inhibition of cell proliferation compared to an untreated control. Results were calculated as the mean values of three independent experiments.

[2] = test system: MCF-7 breast adenocarcinoma cells; assay: Antiproliferative activity, crystal violet assay; assay type: cell-based; settings: 96 h exposure, SD in parentheses, n = 3
Method: as §1, §2, §3, §4, §5

[3] = test system: HT-29 colon carcinoma cells; assay: Antiproliferative activity, crystal violet assay; assay type: cell-based; settings: 72 h exposure, SD in parentheses, n = 3
Method: as §1, §2, §3, §4, §5

[4] = test system: A549 lung carcinoma cells; assay: Antiproliferative activity, crystal violet assay; assay type: cell-based; settings: 72 h exposure, SD in parentheses, n = 3
Method: as §1, §2, §3, §4, §5

TrxR from E. coli = TrxR from E. coli (Escherichia coli, UniProt P0A9P4); assay: Inhibition of isolated bacterial TrxR, DTNB-based assay; assay type: biochemical; parameters: purchased Sigma-Aldrich; settings: compounds at 0.5 µM; n = 2; Table S13
Sequence of TrxR from E. coli (P0A9P4 2-321): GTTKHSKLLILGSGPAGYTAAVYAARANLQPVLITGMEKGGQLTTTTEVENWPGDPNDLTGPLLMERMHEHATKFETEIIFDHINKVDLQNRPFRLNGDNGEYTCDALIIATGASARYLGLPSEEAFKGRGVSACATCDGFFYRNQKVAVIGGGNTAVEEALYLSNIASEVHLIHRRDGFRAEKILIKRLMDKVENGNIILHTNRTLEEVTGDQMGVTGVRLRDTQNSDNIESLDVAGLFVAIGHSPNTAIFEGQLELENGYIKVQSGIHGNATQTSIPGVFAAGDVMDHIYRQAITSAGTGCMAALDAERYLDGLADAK
Method: The inhibition of isolated TrxR from E. coli was determined for the selected monocarbene gold(I/III) complexes 2a–c and 4b–c using a DTNB-based assay (Table 3). […] The inhibition of bacterial TrxR for compound 2a was investigated in our previous report (Table 3).
S2.3. Inhibition of bacterial TrxR from E. coli
The TrxR (E. coli) inhibition assay was performed according to previously published procedures.[8] The assay is partly based on the procedure developed by Lu et al[9] and makes use of the reduction of DTNB (5,5′-dithiobis-(2-nitrobenzoic acid)). Solutions of E. coli TrxR (10.1 U/mL) and E. coli thioredoxin (Trx) (312 μg/mL) (both purchased from Sigma-Aldrich) were prepared in distilled water. Stock solutions of the test compounds (2 mM) were prepared in DMSO and serially diluted with TE buffer (Tris-HCl 50 mM, EDTA 1 mM, pH 7.5). 20 μL of these solutions or TE buffer without the test compounds (positive control) were mixed with the TrxR solution (10 μL), the Trx solution (10 μL) and 100 µl of NADPH (200 μM) in TE buffer in a well on a 96-well plate. As a blank control, 200 μM NADPH in TE buffer (100 μL) mixed with a DMSO / buffer mixture (40 μL) was used (final concentrations of DMSO: 0.5% v/v). The plate was incubated for 75 min at 25°C with moderate shaking. After incubation, 100 μL of a reaction mixture (TE buffer containing 200 μM NADPH and 5 mM DTNB) was added to each well to initiate the reaction. After thorough mixing, the formation of 5-TNB was monitored by a microplate reader at 405 nm in 35 s intervals (10 measurements). The values were corrected by subtraction of the blank solution absorption values. The increase in concentration of 5-TNB followed a linear trend (r2≥ 0.990) and the enzymatic activities were calculated as the gradients (increase in absorbance per second) thereof. […]
for each test compound, where the highest test compound concentration was used and the enzyme solution was replaced by TE buffer. The inhibition is presented as the mean IC50 values and standard deviations obtained in three independent experiments.
Table S13. Activity of TrxR from E. coli in presence of compounds at 0.5 µM (n = 2, n.d.= not

[5] = test system: Vero E6 African green monkey kidney cells; assay: Antiproliferative activity in non-tumour reference cell line; assay type: cell-based; settings: for IC50: Vero E6 non-tumour reference cell line, SD in parentheses, n = 3; for Tumour selectivity: tumour cell lines in comparison to Vero E6: comparison of IC50 in tumour cell lines and non-tumour Vero E6
Method: as §1, §2, §3, §4, §5

SMILES | IC50 [1] | IC50 [2] | IC50 [3] | IC50 [4] | TrxR activity, % of control (TrxR from E. coli) | IC50 [5] | Tumour selectivity: tumour cell lines in comparison to Vero E6 [5]
Cn1cc(C(=O)O)[n+](C)[c]1[Au-]([Cl])([Cl])[c]1n(C)cc(C(=O)O)[n+]1C.[Cl-] [5a] | > 100 µM | > 100 µM | > 100 µM | > 100 µM | 91.6 % of control | > 100 µM | –
COC(=O)c1cn(C)[c]([Au-]([Cl])([Cl])[c]2n(C)cc(C(=O)OC)[n+]2C)[n+]1C.O=S(=O)([O-])C(F)(F)F [5b] | 14.8 µM | 20 µM | 18.6 µM | 3.35 µM | 90.8 % of control | > 100 µM | clear preference for the tumour cell lines
CCOC(=O)c1cn(C)[c]([Au-]([Cl])([Cl])[c]2n(C)cc(C(=O)OCC)[n+]2C)[n+]1C.F[B-](F)(F)F [5c] | 2.33 µM | 3.91 µM | 4.29 µM | 0.89 µM | 93.5 % of control | 30.8 µM | clear preference for the tumour cell lines
